From US4503060A, “3-Imino-3H-dibenzo-[c,f]-imidazo-[1,5-a]azepine pharmaceuticals” (Boehringer Ingelheim KG, priority 1981, dated 1985)

What was measured:
in vivo = conditions: mouse, po
[1] = test system: passive cutaneous anaphylaxis (PCA); test: passive cutaneous anaphylaxis (PCA) in rats after passive sensitization with IgE antibodies and antigen provocation; assay type: in vivo; conditions: po; Rat
Protocol: (a) Tests on allergized rats were carried out after passive sensitization of the animals with IgE antibodies and subsequent antigen provocation. In this way, passive cutaneous anaphylaxis (PCA) was produced (Goose et al [1969]: Immunology 16, 749).

histamine wheal = histamine wheal (antihistaminic activity) in rats, Evans Blue extravasation; assay type: in vivo
Source text: (b) Antihistaminic activity:
The results were quantified by measuring the wheal after extravasation of Evans Blue dye into the skin.

Compound: Br.Cn1cc2n(c1=N)-c1ccccc1Cc1ccccc1-2 [Example 2, 2-Methyl-3-imino-2,3-dihydro-9H-dibenz-[c,f]-imidazo-[1,5-a]-azepine hydrobromide]
- LD50 (in vivo): 280 mg/kg
- ED50 [1]: 1.1 mg/kg
- Histamine Wheal (rat) i.v. (histamine wheal; i.v.): 0.07
- Histamine Wheal (rat) p.o. (histamine wheal; p.o.): 2.7
